Consider 50 compounds from US7169931B2, “Cyclic compounds exhibiting thrombopoietin receptor agonism” (Shionogi & Co., Ltd., priority 2001, dated 2007).

Each structure is given as a SMILES string.

The target of the test is T1, human TPO receptor (Homo sapiens, UniProt P40238).
T1 construct: expressed in transfected cells; host or cells: BaF-B03 (murine IL-3 dependent cell line)
T1 sequence (P40238 26-635): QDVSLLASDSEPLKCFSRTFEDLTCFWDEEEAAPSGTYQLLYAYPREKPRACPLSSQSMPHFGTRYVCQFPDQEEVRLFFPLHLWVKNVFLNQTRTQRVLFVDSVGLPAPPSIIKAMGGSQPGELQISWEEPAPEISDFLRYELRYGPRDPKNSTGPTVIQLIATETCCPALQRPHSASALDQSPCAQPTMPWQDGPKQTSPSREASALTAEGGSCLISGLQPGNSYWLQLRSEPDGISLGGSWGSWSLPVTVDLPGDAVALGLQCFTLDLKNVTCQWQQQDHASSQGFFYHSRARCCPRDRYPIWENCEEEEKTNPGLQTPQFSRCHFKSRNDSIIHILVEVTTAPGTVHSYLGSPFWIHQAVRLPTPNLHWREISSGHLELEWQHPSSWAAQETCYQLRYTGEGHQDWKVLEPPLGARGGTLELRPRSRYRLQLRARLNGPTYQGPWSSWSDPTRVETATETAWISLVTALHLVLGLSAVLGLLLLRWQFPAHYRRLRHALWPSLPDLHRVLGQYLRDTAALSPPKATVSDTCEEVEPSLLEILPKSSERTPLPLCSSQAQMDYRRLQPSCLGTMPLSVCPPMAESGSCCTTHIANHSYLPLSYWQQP
The test can be described thus: Thrombopoietic activity: proliferation of TPO dependent BaF/hTPOR cells (WST-1). Type of test: cell-based. To be noted: BaF/hTPOR cell line (BaF-B03 with human TPO receptor), without IL-3; 20 hours incubation + 4 hours WST-1, absorbance 450 nm; ED50 = half concentration of the concentration showing maximum thrombopoietic activity. The protocol: BAF/hTPOR cells were maintained in RPMI medium and WEHI-3B conditioned medium as a source of murine interleukin-3 (IL-3). These cells were washed and resuspended in RPMI medium without a source of murine IL-3 and seeded into each well of 96-well microtiter plates at a density of 5×10^4 cells per well in the absence or presence of various concentration of hTPO or the present compound. After incubation at 37° C. for 20 hours in the 5% CO2 incubator, 10% WST-1 reagent (Takara Biomedicals, Japan) was added to each wells and the cells were further incubated for 4 hours. The absorbance at 450 nm was measured.
On the technique in general: Tetrazolium assays rely on reduction of a dye to a coloured formazan, in cell work by metabolically active cells.

Regarding `O=C(Nc1nc(-c2ccc(Cl)c(Cl)c2)cs1)c1ccc2c(c1)CCC(C(=O)O)C2` (centres unmarked) [Compound A-1], the EC50 turned out to be 40 nM. As for `CCOC(C)(C)c1cccc(-c2csc(NC(=O)c3ccc4c(c3)CCC(C(=O)O)C4)n2)c1F` (centres unmarked) [Compound B-32], the EC50 was 96 nM. With `O=C(Nc1nc(-c2cccc(C(F)(F)F)c2F)cs1)c1ccc2c(c1)CCC(C(=O)O)C2` (centres unmarked) [Compound B-1] the figure was 69 nM; with `CCCCCc1cccc(-c2csc(NC(=O)c3ccc4c(c3)CCC(C(=O)O)C4)n2)c1F` (centres unmarked) [Compound B-5], 56 nM; with `COC(=O)c1ccc2cc(C(=O)Nc3nc(-c4ccc(Cl)c(Cl)c4)cs3)ccc2c1` [Compound A-18], 43 nM. Take `O=C(Nc1nc(-c2ccc(F)c(F)c2)cs1)c1ccc2c(c1)CCC(C(=O)O)C2` (centres unmarked) [Compound B-7]: the EC50 turned out to be 280 nM. On to `O=C(Nc1nc(-c2cccc(C(F)(F)F)c2F)cs1)c1ccc2c(c1)CC(C(=O)O)C2` [Compound D-3], for which the EC50 stood at 370 nM. As for `O=C(Nc1nc(-c2ccc(Cl)c(Cl)c2)cs1)c1ccc2c(c1)C(F)CC(C(=O)O)C2` (centres unmarked) [Compound A-9], the EC50 came out at 306 nM. Take `CCCCOc1cccc(-c2csc(NC(=O)c3ccc4c(c3)CCC(C(=O)O)C4)n2)c1F` (centres unmarked) [Compound B-16]: the EC50 is 98 nM. As to `O=C(Nc1nc(-c2cccc(OC(F)(F)F)c2F)cs1)c1ccc2c(c1)CCC(C(=O)O)C2` (centres unmarked) [Compound B-14], the EC50 was determined as 42 nM. With `O=C(O)CC1Cc2ccc(C(=O)Nc3nc(-c4ccc(Cl)c(Cl)c4)cs3)cc2C1` (centres unmarked) [Compound A-16] the figure was 230 nM.

Consider `O=C(Nc1nc(-c2cccc(C3CCCCC3)c2F)cs1)c1ccc2c(c1)CCC(C(=O)O)C2` (centres unmarked) [Compound B-12], for which the EC50 stood at 74 nM. In the case of `O=C(Nc1nc(-c2ccc(Cl)c(Cl)c2)cs1)c1ccc2c(c1)C(=O)CC(C(=O)O)C2` (centres unmarked) [Compound A-6], the EC50 is 210 nM. As for `Cc1c(C(=O)O)oc2ccc(C(=O)Nc3nc(-c4ccc(Cl)c(Cl)c4)cs3)cc12` [Compound C-5], the EC50 is 880 nM.

For `CCOC(c1cccc(-c2csc(NC(=O)c3ccc4c(c3)CCC(C(=O)O)C4)n2)c1F)C(C)C` (centres unmarked) [Compound B-25], the EC50 amounted to 38 nM.

Take `COC(=O)c1ccc2cc(C(=O)Nc3nc(-c4ccc(Cl)c(Cl)c4)cs3)ccc2n1` [Compound A-22]: the EC50 came to 190 nM. Turning to `COC(=O)CC1Cc2ccc(C(=O)Nc3nc(-c4ccc(Cl)c(Cl)c4)cs3)cc2C1` (centres unmarked) [Compound A-15], the EC50 turned out to be 240 nM. With `O=C(O)c1ccc2sc(C(=O)Nc3nc(-c4ccc(Cl)c(Cl)c4)cs3)cc2c1` [Compound E-1], the EC50 was 16500 nM. With `COC(=O)C1(F)CCc2cc(C(=O)Nc3nc(-c4ccc(Cl)c(Cl)c4)cs3)ccc2C1` (centres unmarked) [Compound A-5], the EC50 came to 165 nM. Turning to `COC(=O)C1Cc2ccc(C(=O)Nc3nc(-c4ccc(Cl)c(Cl)c4)cs3)cc2C(=O)C1F` (centres unmarked) [Compound A-11], the half-maximal effective concentration (EC50) was 552 nM. With `CC(C)c1cccc(-c2csc(NC(=O)c3ccc4c(c3)CCC(C(=O)O)C4)n2)c1F` (centres unmarked) [Compound B-11] the figure was 66 nM; with `O=C(Nc1nc(-c2cccc(C(F)(F)F)c2)cs1)c1ccc2c(c1)CCC(C(=O)O)C2` (centres unmarked) [Compound B-8], 120 nM. Regarding `O=C(Nc1nc(-c2cccc(Cc3ccccc3)c2F)cs1)c1ccc2c(c1)CCC(C(=O)O)C2` (centres unmarked) [Compound B-31], the EC50 worked out at 104 nM. `O=C(Nc1nc(-c2cccc(CCc3ccccc3)c2F)cs1)c1ccc2c(c1)CCC(C(=O)O)C2` (centres unmarked) [Compound B-15]: the EC50 is 59 nM.

Regarding `O=C(Nc1nc(-c2ccc(C(F)(F)F)cc2F)cs1)c1ccc2c(c1)CCC(C(=O)O)C2` (centres unmarked) [Compound B-4], the EC50 amounted to 110 nM. Turning to `O=C(O)CC1Cc2ccc(C(=O)Nc3nc(-c4ccc(Cl)c(Cl)c4)cs3)cc2C1=O` (centres unmarked) [Compound A-14], the concentration giving a half-maximal response (EC50) was 230 nM. On to `CCCCCCCc1cccc(-c2csc(NC(=O)c3ccc4c(c3)CCC(C(=O)O)C4)n2)c1F` (centres unmarked) [Compound B-26], for which the EC50 was determined as 25 nM. For `CCCc1cccc(-c2csc(NC(=O)c3ccc4c(c3)CCC(C(=O)O)C4)n2)c1F` (centres unmarked) [Compound B-20], the EC50 was 68 nM. With `COC(=O)[C@@H]1Cc2ccc(C(=O)Nc3nc(-c4ccc(Cl)c(Cl)c4)cs3)cc2[C@H](O)C1` [Compound A-8], the EC50 was found to be 2280 nM. For `COC(c1cccc(-c2csc(NC(=O)c3ccc4c(c3)CCC(C(=O)O)C4)n2)c1F)C(C)C` (centres unmarked) [Compound B-22], the EC50 came to 64 nM. Consider `COC(=O)CC1Cc2ccc(C(=O)Nc3nc(-c4ccc(Cl)c(Cl)c4)cs3)cc2C1=O` (centres unmarked) [Compound A-13], for which the EC50 turned out to be 270 nM. Take `O=C(Nc1nc(-c2cccc(C(F)(F)F)c2)c(F)s1)c1ccc2c(c1)CCC(C(=O)O)C2` (centres unmarked) [Compound B-24]: the EC50 came out at 53 nM. With `O=C(Nc1nc(-c2ccc(Cl)c(Cl)c2)cs1)c1ccc2c(c1)CCC(F)(C(=O)O)C2` (centres unmarked) [Compound A-4], the EC50 turned out to be 148 nM. As for `Cc1sc(NC(=O)c2ccc3c(c2)CCC(C(=O)O)C3)nc1-c1cccc(C(F)(F)F)c1` (centres unmarked) [Compound B-17], the EC50 was 146 nM.

Regarding `CCCCCCCCCCc1cccc(-c2csc(NC(=O)c3ccc4c(c3)CCC(C(=O)O)C4)n2)c1F` (centres unmarked) [Compound B-28], the EC50 stood at 23 nM. For the compound `O=C(O)c1ccc2cc(C(=O)Nc3nc(-c4ccc(Cl)c(Cl)c4)cs3)ccc2c1` [Compound A-17], the EC50 is 23 nM. On to `O=C(Nc1nc(-c2ccc3c(c2)CCCC3)cs1)c1ccc2c(c1)CCC(C(=O)O)C2` (centres unmarked) [Compound B-2], for which the EC50 was 214 nM. Regarding `CCOC(=O)C1Cc2cc(C(=O)Nc3nc(-c4cccc(C(F)(F)F)c4F)cs3)ccc2C1=O` [Compound D-6], the EC50 came to 2540 nM. Turning to `O=C(Nc1nc(-c2cccc(C3CCCC3)c2F)cs1)c1ccc2c(c1)CCC(C(=O)O)C2` (centres unmarked) [Compound B-18], the EC50 is 72 nM. Consider `O=C(Nc1nc(-c2cccc(C3CCOCC3)c2F)cs1)c1ccc2c(c1)CCC(C(=O)O)C2` (centres unmarked) [Compound B-13], for which the EC50 came to 342 nM.

Consider `O=C(O)c1ccc2c(c1)CCC(C(=O)Nc1nc(-c3ccc(Cl)c(Cl)c3)cs1)C2` (centres unmarked) [Compound A-2], for which the EC50 was determined as 376 nM. With `O=C(Nc1nc(-c2ccc(Cl)c(Cl)c2)cs1)c1ccc2oc(C(=O)O)cc2c1` [Compound C-3] the figure was 995 nM; with `CCCCc1cccc(-c2csc(NC(=O)c3ccc4c(c3)CCC(C(=O)O)C4)n2)c1` (centres unmarked) [Compound B-3], 219 nM; with `O=C(Nc1nc(-c2ccc(Cl)c(Cl)c2)c(F)s1)c1ccc2c(c1)CCC(C(=O)O)C2` (centres unmarked) [Compound B-10], 48 nM. Consider `CCCCCCCCc1cccc(-c2csc(NC(=O)c3ccc4c(c3)CCC(C(=O)O)C4)n2)c1F` (centres unmarked) [Compound B-27], for which the EC50 came out at 24 nM. Next, `O=C(Nc1nc(-c2ccc(Cl)c(Cl)c2)cs1)c1ccc2cc(C(=O)O)oc2c1` [Compound C-4]: 567 nM; `O=C(Nc1nc(-c2cccc(C(F)(F)F)c2F)cs1)c1ccc2sc(C(=O)O)cc2c1` [Compound D-1]: 21 nM. On to `O=C(O)C1=Cc2ccc(C(=O)Nc3nc(-c4cccc(C(F)(F)F)c4F)cs3)cc2C1` [Compound D-5], for which the EC50 was 210 nM. Consider `CC(C)Cc1cccc(-c2csc(NC(=O)c3ccc4c(c3)CCC(C(=O)O)C4)n2)c1F` (centres unmarked) [Compound B-19], for which the EC50 is 48 nM. As for `COC(=O)C1CC(=O)c2cc(C(=O)Nc3nc(-c4ccc(Cl)c(Cl)c4)cs3)ccc2C1` (centres unmarked) [Compound A-7], the EC50 came out at 250 nM.

The term EC50 denotes the midpoint of the concentration-response curve.
